What was measured:
[1] = tested on: p-MEK1/2 and p-Erk1/2; test: Western blot assay of p-MEK1/2 and p-Erk1/2 in MC-38 cells; type: cell-based, Murine; conditions: 10 h
Experimental: MC38 cells were lysed using whole protein extraction kit (KeyGEN BioTECH, Nanjing, China, KGP250). Protein concentration was determined using bicinchoninic acid (BCA) protein assay (KeyGEN BioTECH, Nanjing, China, KGPBCA). Protein extracts were electrophoresed in 10% SDS-PAGE and transferred to a nitrocellulose filter (NC) membrane, blocked by 5% skim milk at room temperature for 1 h, which was prepared in Tris-buffered saline with tween 20 (TBST). Then, the membranes were immunoblotted by primary antibodies. For detection, HRP-conjugated secondary antibodies (Ray Antibody Biotech, Beijing, China, RM2001L) and chemiluminescent HRP substrate kit (EpiZyme, Shanghai, China, SQ2O2) were used. As the molecular weight of the target bands is similar, the western blot fast stripping buffer (EpiZyme, Shanghai, China, PS107) was used. The following primary antibodies were used: anti-p-MEK1/2 (Cell Signaling Technology (CST), 41G9, Boston, MA), anti-p-Erk1/2 (CST, 197G2). The blots were quantified using ImageJ (National Institutes of Health, Bethesda, MD) and normalized to the control group.

[2] = tested on: MC-38 colon tumor; parameters: method as in our previous research (data not shown); conditions: in vivo; ref our previous research (data not shown); cited from earlier work
[3] = tested on: MC-38 cells; test: In vitro cytotoxicity, CCK-8 assay; type: cell-based, Murine; conditions: Mus musculus, 72 h, curcumin concentration
Experimental: The cytotoxicity of s-Cur, Cur/NCMs, and Cur/DCMs against MC-38 cells was determined by a CCK-8 assay. Briefly, MC-38 cells were cultured in RPMI1640 medium with 10% FBS, penicillin (100 U/mL), and streptomycin (100 µg/mL) for 24 h. Then, the cells were seeded in 96-well plates (Corning, NY) at 10,000 cells/well in 100 µL medium. After incubation for 24 h, the cells were exposed to s-Cur and equivalent amount of Cur/NCMs and Cur/DCMs to yield final curcumin concentrations from 0 to 65 µg/mL. For GSH triggered release experiments, adherent cells were incubated with 10 mM glutathione monoethyl ester (GSH-OEt) for 2 h before exposure to the curcumin formulations.
After incubation for 72 h, 10 μL CCK8 solution with 100 μL growth medium was added into each well and the cells were incubated for another 1 h. Then, the culture medium was added with 10 μL 1% SDS (dissolve 0.1 g SDS with PBS to obtain 10 mL solution) to stop the reaction, and reading on a Synergy HTX multi-mode reader (BioTek, Winooski, VT) at 450 nm. The cytotoxicity assay was performed in triplicate and the cell viability (%) was calculated with the following equation: (3) Cell viability=At−AB/Ac−AB×100% where At is the absorption value of samples, Ac is the absorption value of the control group, and AB is the absorption value of the blank group. […]

[4] = In vitro release of curcumin by dynamic dialysis method; type: physicochemical; conditions: 20% SDS release medium, 37 °C
Experimental: In order to evaluate the crosslinking effect, in vitro release profiles of curcumin from DMSO (s-Cur), Cur/NCMs, and Cur/DCMs were studied by dynamic dialysis method with 20% SDS solution as release medium. Lyophilized micelles were reconstituted and diluted to 1 mg/mL of curcumin with PBS (0.1 M, pH 7.4) then placed 1 mL into dialysis tube (MWCO 8000–14,000 Da). The tubes were dialyzed against 50 mL release medium at 37 ± 0.5 °C at a stirring speed of 100 rpm with or without 10 mM GSH. At predetermined time intervals, 1 mL of release medium was withdrawn and replenished with an equal volume of the fresh medium. The amount of curcumin released was determined by HPLC analysis as mentioned above. Cumulative release of curcumin was then calculated. The in vitro release studies were carried out in triplicate.

[5] = Pharmacokinetics after i.v. administration in SD rats; type: in vivo; conditions: Sprague-Dawley, rat, plasma, iv
Experimental: Nine SD rats were randomly divided into three groups (three rats for each group), receiving s-Cur, Cur/NCMs, and Cur/DCMs. Following the intravenous (i.v.) administration of the three curcumin formulations (20 mg/kg), 0.1 mL of the blood samples was collected from the tail vein at predetermined time intervals. The blood samples were centrifuged for 6 min at 5867×g to obtain the plasma. Then, the curcumin concentrations in the plasma were analyzed using a liquid chromatography mass spectrometer (LCMS-2020) equipped with a Shimadzu UV-visible spectrophotometer (Columbia, MD). The detection limitation of the equipment was 1 ng/mL. We employed the non-compartmental analysis in WinNonlin software V6.2.1 to calculate major pharmacokinetic parameters.

- curcumin released ([4]; at 24 h): 75%
- curcumin released ([4]; within the first 8 h): About 60%
- concentration at 12 h ([5]; i.v. 20 mg/kg, after 12 h (detection limit), read-out: plasma curcumin level): < 1 ng/mL
- concentration at 30 min ([5]; i.v. 20 mg/kg, within 30 min, read-out: plasma curcumin level): < 100 ng/mL
- AUC(0-inf) ([5]; single dosage 20 mg/kg): 1970 ng·h/mL
- AUC(0-t) ([5]; single dosage 20 mg/kg): 1960 ng·h/mL
- Cmax ([5]; single dosage 20 mg/kg): 7120 ng/mL
- half-life ([5]; single dosage 20 mg/kg): 83.4 min
- clearance ([5]; single dosage 20 mg/kg, read-out: CLz (converted)): 170 mL/min/kg
- MRT last ([5]; single dosage 20 mg/kg, read-out: MRT(0–t)): 9 min
- MRT inf ([5]; single dosage 20 mg/kg, read-out: MRT(0–∞)): 9.6 min
- Vd ([5]; single dosage 20 mg/kg, read-out: Vz): 20.4 L/kg
SMILES: COc1cc(C=CC(=O)CC(=O)C=Cc2ccc(O)c(OC)c2)ccc1O [s-Cur, 1,7-bis(4-hydroxy-3-methoxyphenyl)-1,6-heptadiene-3,5-dione]
- expression of the proliferative marker proteins p-MEK1/2 and p-ERK1/2 [1]: significantly low expression
- enhancement of the antitumor effects of anti-PD-1 [2]: not to be able to significantly enhance the antitumor effects of anti-PD-1
- IC50 [3]: 13.7 µg/mL
